Our source for the IC50 values is ChEMBL document CHEMBL4219271, “Synthesis and anti-proliferative activity of allogibberic acid derivatives containing 1,2,3-triazole pharmacophore” (Bioorg Med Chem Lett, 2018).

Format in all cases: functional, cell-based
In one assay the test system is SW480. Briefly: Cytotoxicity against human SW480 cells assessed as decrease in cell viability after 4 days by MTT assay. The following applies: SW480, 96 h. A general note: Formazan colour is commonly taken as a measure of viable cells.
The subject of the next assay is HL-60. Briefly: Cytotoxicity against human HL60 cells assessed as decrease in cell viability after 4 days by MTT assay. As to conditions: HL-60, 96 h.
In a further assay the test system is MCF7. In words: Cytotoxicity against human MCF7 cells assessed as decrease in cell viability after 4 days by MTT assay. The following applies: MCF7, 96 h.
The next assay deals with SMMC-7721. Briefly: Cytotoxicity against human SMMC7721 cells assessed as decrease in cell viability after 4 days by MTT assay. As to conditions: SMMC-7721, 96 h.
The subject of the next assay is A549. Briefly: Cytotoxicity against human A549 cells assessed as decrease in cell viability after 4 days by MTT assay. The following applies: A549, 96 h.

The IC50 is the concentration needed to halve the response being measured.

For the compound `Cc1c(O)ccc2c1[C@H](Cn1cc(-c3ccc(C(F)(F)F)cc3)nn1)[C@@]13CC(=O)[C@@](C)(CC[C@@H]21)C3`, the IC50 in the assay on SW480, in the assay with HL-60, in the assay with MCF7, with SMMC-7721 and in the assay on A549 was above 20 µM in each case.

Consider `Cc1ccc(S(=O)(=O)Oc2ccc3c(c2C)[C@H](Cn2cc(-c4ccc(Cl)cc4)nn2)[C@@]24CC(=O)[C@@](C)(CC[C@@H]32)C4)cc1`, for which the IC50 in the assay with SW480, with HL-60, in the assay with MCF7, in the assay with SMMC-7721 and in the assay on A549 was above 20 µM each time.

In the case of `Cc1ccc(S(=O)(=O)Oc2ccc3c(c2C)[C@H](Cn2cc(-c4ccc(C(F)(F)F)cc4)nn2)[C@@]24CC(=O)[C@@](C)(CC[C@@H]32)C4)cc1`, the IC50 in the assay on SW480, with HL-60, in the assay on MCF7, with SMMC-7721 and with A549 was above 20 µM each time.

In the case of `C=C1C[C@]23C[C@@]1(O)CC[C@@H]2c1cccc(C)c1[C@@H]3Cn1cc(-c2ccc(Br)cc2)nn1`, the IC50 in the assay with SW480, in the assay on HL-60, in the assay on MCF7, in the assay on SMMC-7721 and in the assay with A549 was above 20 µM in each case.

Consider `C=C1C[C@]23C[C@@]1(O)CC[C@H]2c1ccc(O)c(C)c1[C@@H]3Cn1cc(-c2ccc(F)cc2)nn1`, for which the IC50 in the assay with SW480, in the assay with HL-60, in the assay with MCF7, with SMMC-7721 and with A549 was above 20 µM throughout.

In the case of `C=C1C[C@]23C[C@@]1(O)CC[C@H]2c1cc(Br)c(O)c(C)c1[C@@H]3Cn1cc(-c2ccc(C(F)(F)F)cc2)nn1`, the IC50 in the assay with SW480 was 15.2 µM; with HL-60 it was 7.38 µM; in the assay on MCF7, 8.1 µM; in the assay with SMMC-7721 it was 12.8 µM; with A549 it was 9.28 µM.

Turning to `C=C1C[C@]23C[C@@]1(O)CC[C@@H]2c1cccc(C)c1[C@@H]3Cn1cc(-c2ccc(Cl)cc2)nn1`, the IC50 with SW480, in the assay on HL-60, with MCF7, with SMMC-7721 and with A549 was above 20 µM in each case.

For `Cc1c(O)ccc2c1[C@H](Cn1cc(-c3ccc(F)cc3)nn1)[C@@]13CC(=O)[C@@](C)(CC[C@@H]21)C3`, the IC50 with SW480, in the assay on HL-60, with MCF7, in the assay on SMMC-7721 and with A549 was above 20 µM in each case.

As for `COc1ccc(-c2cn(C[C@H]3c4c(ccc(O)c4C)[C@@H]4CC[C@@]5(C)C[C@]43CC5=O)nn2)cc1`, the IC50 in the assay with SW480, with HL-60, in the assay on MCF7, with SMMC-7721 and with A549 was above 20 µM each time.

Regarding `C=C1C[C@]23C[C@@]1(O)CC[C@@H]2c1cccc(C)c1[C@@H]3Cn1cc(-c2ccc(OC)cc2)nn1`, the IC50 with SW480, in the assay with HL-60, with MCF7, in the assay with SMMC-7721 and in the assay with A549 was above 20 µM throughout.

Take `C=C1C[C@]23C[C@@]1(O)CC[C@@H]2c1cccc(C)c1[C@@H]3Cn1cc(-c2ccccc2)nn1`: the IC50 in the assay on SW480, with HL-60, with MCF7, with SMMC-7721 and with A549 was above 20 µM in each case.

Take `COc1ccc(-c2cn(C[C@H]3c4c(ccc(OS(=O)(=O)c5ccc(C)cc5)c4C)[C@@H]4CC[C@@]5(C)C[C@]43CC5=O)nn2)cc1`: the IC50 in the assay on SW480, with HL-60, in the assay with MCF7, in the assay on SMMC-7721 and in the assay with A549 was above 20 µM in each case.

`C=C1C[C@]23C[C@@]1(O)CC[C@H]2c1ccc(O)c(C)c1[C@@H]3Cn1cc(-c2ccc(Br)cc2)nn1`: the IC50 in the assay with SW480, in the assay on HL-60, with MCF7, with SMMC-7721 and with A549 was above 20 µM throughout.

Regarding `C=C1C[C@]23C[C@@]1(O)CC[C@H]2c1cc(Br)c(O)c(C)c1[C@@H]3Cn1cc(-c2ccc(C)cc2)nn1`, the IC50 in the assay with SW480, in the assay on HL-60, with MCF7, with SMMC-7721 and with A549 was above 20 µM throughout.

`C=C1C[C@]23C[C@@]1(O)CC[C@@H]2c1cccc(C)c1[C@@H]3Cn1cc(-c2ccc(C)cc2)nn1`: the IC50 in the assay with SW480, in the assay on HL-60, in the assay with MCF7, in the assay on SMMC-7721 and in the assay with A549 was above 20 µM throughout.

Regarding `C=C1C[C@]23C[C@@]1(O)CC[C@H]2c1ccc(O)c(C)c1[C@@H]3Cn1cc(-c2ccccn2)nn1`, the IC50 in the assay with SW480, with HL-60, with MCF7, with SMMC-7721 and in the assay on A549 was above 20 µM each time.

In the case of `C=C1C[C@]23C[C@@]1(O)CC[C@H]2c1ccc(OS(=O)(=O)c2ccc(C)cc2)c(C)c1[C@@H]3Cn1cc(-c2ccc(OC)cc2)nn1`, the IC50 in the assay on SW480, in the assay on HL-60, in the assay with MCF7, with SMMC-7721 and in the assay on A549 was above 20 µM each time.

On to `C=C1C[C@]23C[C@@]1(O)CC[C@H]2c1ccc(OS(=O)(=O)c2ccc(C)cc2)c(C)c1[C@@H]3Cn1cc(-c2ccc(Br)cc2)nn1`, for which the IC50 with SW480, with HL-60, in the assay on MCF7, with SMMC-7721 and with A549 was above 20 µM in each case.

Take `C=C1C[C@]23C[C@@]1(O)CC[C@@H]2c1cccc(C)c1[C@@H]3Cn1cc(-c2ccccn2)nn1`: the IC50 in the assay on SW480, with HL-60, in the assay on MCF7, in the assay with SMMC-7721 and with A549 was above 20 µM throughout.

In the case of `C=C1C[C@]23C[C@@]1(O)CC[C@H]2c1cc(Br)c(O)c(C)c1[C@@H]3Cn1cc(-c2ccc(OC)cc2)nn1`, the IC50 in the assay with SW480, in the assay with HL-60, with MCF7, in the assay on SMMC-7721 and with A549 was above 20 µM each time.

In the case of `C=C1C[C@]23C[C@@]1(O)CC[C@H]2c1ccc(OS(=O)(=O)c2ccc(C)cc2)c(C)c1[C@@H]3Cn1cc(-c2ccc(C(F)(F)F)cc2)nn1`, the IC50 in the assay with SW480, in the assay with HL-60, with MCF7, in the assay on SMMC-7721 and in the assay with A549 was above 20 µM throughout.

In the case of `C=C1C[C@]23C[C@@]1(O)CC[C@H]2c1cc(Br)c(O)c(C)c1[C@@H]3Cn1cc(-c2ccc(Cl)cc2)nn1`, the IC50 with SW480 turned out to be 18 µM; in the assay with HL-60, 5.59 µM; in the assay on MCF7 it was 10.2 µM; in the assay with SMMC-7721, 19.1 µM; in the assay with A549, 10.5 µM.

With `Cc1ccc(S(=O)(=O)Oc2ccc3c(c2C)[C@H](Cn2cc(-c4ccc(F)cc4)nn2)[C@@]24CC(=O)[C@@](C)(CC[C@@H]32)C4)cc1`, the IC50 in the assay on SW480, in the assay on HL-60, in the assay with MCF7, with SMMC-7721 and with A549 was above 20 µM throughout.
